Data from patent US6495675B1, “Pharmaceutical composition for treating or preventing influenza, and novel capped oligonucleotide” (Chiba Institute of Technology, priority 1997, dated 2002).
Like-named read-outs stand apart in the source and are kept apart here. Strand notation (5' to 3'): a small letter for the sugar, then the base; units joined by * are phosphorothioate-linked, units joined directly phosphodiester-linked; [ ] holds rarer units or linkages, { } end groups; capitals alone tell only the bases. {m7GpppGm} = cap: 7-methylguanosine 5'-5' triphosphate-linked to 2'-O-methylguanosine; {m7GpppG} = cap: 7-methylguanosine 5'-5' triphosphate-linked to guanosine; r = 2'-OH (RNA)

Tested on: CAT protein expression in 76 cells expressing RNA polymerases (PB1, PB2, and PA) and NP protein of influenza A virus (A/PR/8/34)
Type: cell-based

Substance | inhibition of CAT protein expression (in words) (concentration not specified) | inhibition of CAT protein expression (in words) (high dose (0.3 μM))
m^7GpppG AAUACUC ({m7GpppG}-rArArUrArCrUrC) [G8] | significant inhibition | –
m^7GpppGmAAUACUC ({m7GpppGm}-rArArUrArCrUrC) [Gm8] | significant inhibition | –
m^7GpppGmAAUACUCAAACU ({m7GpppGm}-rArArUrArCrUrCrArArArCrU) [Gm13, reference compound] | weak inhibition | little inhibition
